Two substances from patent US20230181677A1, “POLYPEPTIDE FOR PROMOTING BONE REGENERATION OR BONE FORMATION AND ITS USE” (SEWON BIOTECHNOLOGY INC., priority 2016, published 2023) can be followed below.

Where no end group is shown, it is not given here.

The test system of data set [1] is undifferentiated stem cells. Put plainly: ALP activity of undifferentiated stem cells cultured on titanium disk (osteocyte differentiation). In kind it is cell-based. The settings on record: peptide 10 μM, 6 hours then osteoblast differentiation medium 48 hours, versus control (C). The text has this:
As described above, on the surface of hard structures such as bones or on the surface where cells are difficult to attach to, the peptide of the present invention can promotes the cell adhesion which is a key mechanism for the regeneration. […] Therefore, in this Example, various adhesive peptides developed and disclosed in the present disclosure were used to test their activity for promoting the osteocyte differentiation. For this, each peptide was mixed with undifferentiated stem cells, which was then cultured on a titanium osteoconductive surface, and analyzed the cells for the differentiation into osteocytes. Two×10^4 cells/ml treated with trypsin and mixed with peptide (10 μM) were cultured on a dental titanium disk having a diameter of 10 mm in size for 6 hours, after which the medium was replaced with osteoblast differentiation medium and the cells were cultured for 48 hours. Then the discs were recovered and the cells were lysed and ALP (Alkaline phosphatase) activity was measured.

The next data set deals with femur muscle of mouse. Put plainly: ectopic ossification analysis, ACS graft in femur muscle, micro-CT. In kind it is in vivo. Conditions: BMP-2 2 μg left femur, peptide 600 μg right femur; n=10; eight weeks after operation. As for the experimental part:
Eight weeks after the operation, animals were euthanized and micro-CT analysis was performed to observe calcification (ectopic ossification) in the muscle. All 10 animals were used.

Turning to “(R) 15-QLVVKFRALPC (RRRRRRRRRRRRRRRQLVVKFRALPC) [SEQ ID NO: 41, peptide positively charged at the N-terminus containing 15 arginine residues]”, the “ALP (Alkaline phosphatase) activity” value in data set [1] was “highest ALP activity”.
For RQLVVKFRALPC [present peptide], the “ectopic ossification (calcification in the muscle), micro-CT” value with femur muscle of mouse is reported as “no ectopic ossification in all the mice treated”.
